Data taken from patent US8673617B2, “Culture medium for Haemophilus influenzae type B” (Sanofi Pasteur SA, priority 2007, dated 2014).

Assays:
[1] = test system: Haemophilus influenzae serotype b; assay: PRP production in liquid garden pea peptone-based culture medium as a function of heme source (sandwich ELISA on supernatant); format: cell-based; conditions: for Mean PRP / PRP in mg/l Assay 1 / PRP in mg/l Assay 2: garden pea medium, 16 h
Protocol: The production of PRP obtained after 16 hours of bacterial culture in liquid plant peptones-based culture media in which the heme source was either hemin or protoporphyrin IX of animal origin (porcine protoporphyrin) in disodium salt form, or protoporphyrin IX of purely synthetic origin in disodium salt form was compared. […] An enzymatic hydrolysate of garden pea peptone provided by Kerry (Hy pea 7404) and a wheat peptone provided by Organotechnie (19559) were tested at a concentration in the culture medium equivalent to 0.87 g/l of protein nitrogen. By reference to the current methods for the production of PRP, PRP production was also measured in a medium that contains a peptone of animal origin, such as casein hydrolysate (HAC) provided by Solabia at a concentration in the medium equivalent to 0.87 g/l with increased concentrations of hemin (see table III).
(§1) 1.1) Preparation of the Media • 1.1.1. Stock solution of β-NAD (Fluka) at 1 g/l in water which was ultrafiltered and then sterilized by filtration through 0.22 μm. • 1.1.2. Stock solution of hemin (Sigma) at 0.25 g/l in water was ultrafiltered, comprising 5 ml of 25% aqueous ammonia (Cooper) to aid dissolution. The stock solution was sterilized by filtration through 0.22 μm. • 1.1.3. Stock solution of porcine protoporphyrin IX (Sigma) at 0.25 g/l in ultrafiltered water comprising 5 ml of 25% aqueous ammonia (Cooper) in order to facilitate the dissolution. The stock solution was sterilized by filtration through 0.22 μm. • 1.1.4. Stock solution of synthetic protoporphyrin IX at 0.25 g/l in ultrafiltered water comprising 5 ml of 25% aqueous ammonia (Cooper) in order to facilitate the dissolution. The stock solution was also heated to 80° C. in a water bath with stirring in order to complete the dissolution before being sterilized by filtration through 0.22 μm. The protoporphyrin IX, in disodium salt form, was synthesized according to the method described in the U.S. provisional patent application Ser. No. 12/057,574, filed Mar. 28, 2008 and application Ser. No. 60/943,735 and filed on Jun. 13, 2007 using the steps which are described in scheme 2. • The stock solutions of hemin and protoporphyrin IX were checked for their respective contents of active compounds after sterilizing filtration. The protoporphyrin IX and hemin contents were determined by Reversed Phase High Performance Liquid Chromatography (RP-HPLC). The chromatographic chain comprises a twin head pump module allowing the formation of a binary gradient, a programmable automatic injector, a diode array UV detector and a chromatographic column of the type Synergi 4 μm, Polar RP-80A (150×4.6) mm, ref 00F-4336-E0, Phenomenex. • The stock solution of hemin (Sigma) to be checked after filtration was diluted ⅓ in distilled water. The stock solutions of porcine protoporphyrin IX (Sigma) and of synthetic protoporphyrin IX to be checked after filtration were diluted ¼ in distilled water. In parallel, a calibration series was prepared in ammoniated water ranging from 0.025 g/l to 0.125 g/l of protoporphyrin IX from porcine protoporphyrin IX from Sigma (ref: 25838-5) and a calibration series ranging from 0.050 g/l to 0.150 g/l of hemin from hemin from Sigma (ref: H5533-256). The samples to be checked and the various solutions of the calibration series were injected in a volume of 20 μl (for the hemin solutions and samples) and of 5 μl (for the protoporphyrin IX solutions and samples). The initial mobile phase consisting of a volume for volume mixture of acetonitrile and 10 mM KH2PO4 pH 2.5 is set at a flow rate of 1 ml/min. A discontinuous gradient was then produced from this mobile phase in order to separate the molecules of interest which are detected at a wavelength of 400 nm. […]

[2] = test system: Haemophilus influenzae serotype b; assay: PRP production in liquid wheat peptone-based culture medium as a function of heme source (sandwich ELISA on supernatant); format: cell-based; conditions: for Mean PRP / PRP in mg/l Assay 1 / PRP in mg/l Assay 2: wheat medium, 16 h
Protocol: The production of PRP obtained after 16 hours of bacterial culture in liquid plant peptones-based culture media in which the heme source was either hemin or protoporphyrin IX of animal origin (porcine protoporphyrin) in disodium salt form, or protoporphyrin IX of purely synthetic origin in disodium salt form was compared. The hemin and protoporphyrin IX concentration ranges in the culture media varied from about 0.010 g/l to about 2 g/l so as to obtain PRP titration curves as a function of the heme source tested and as a function of the plant peptone tested. An enzymatic hydrolysate of garden pea peptone provided by Kerry (Hy pea 7404) and a wheat peptone provided by Organotechnie (19559) were tested at a concentration in the culture medium equivalent to 0.87 g/l of protein nitrogen. By reference to the current methods for the production of PRP, PRP production was also measured in a medium that contains a peptone of animal origin, such as casein hydrolysate (HAC) provided by Solabia at a concentration in the medium equivalent to 0.87 g/l with increased concentrations of hemin (see table III).
as §1

[3] = porcine protoporphyrin IX 7.48 μg/l
[4] = porcine protoporphyrin IX 37.4 μg/l
[5] = porcine protoporphyrin IX 74.8 μg/l
[6] = porcine protoporphyrin IX 187 μg/l
[7] = porcine protoporphyrin IX 374 μg/l
[8] = porcine protoporphyrin IX 748 μg/l
[9] = porcine protoporphyrin IX 1122 μg/l
[10] = porcine protoporphyrin IX 1496 μg/l
[11] = synthetic protoporphyrin IX 9.96 μg/l
[12] = synthetic protoporphyrin IX 49.8 μg/l
[13] = synthetic protoporphyrin IX 99.6 μg/l
[14] = synthetic protoporphyrin IX 249 μg/l
[15] = synthetic protoporphyrin IX 498 μg/l
[16] = synthetic protoporphyrin IX 996 μg/l
[17] = synthetic protoporphyrin IX 1494 μg/l
[18] = synthetic protoporphyrin IX 1992 μg/l

protoporphyrin IX
protoporphyrin IX concentration to obtain about 400 mg/l of PRP ([1]; garden pea peptone and protoporphyrin IX-based medium): about 100 μg/l | times less protoporphyrin IX than hemin required for maximum PRP production ([1]; garden pea peptone medium): About 12.5 times | heme source concentration required for optimum / maximum PRP production ([1]; garden pea peptone medium (FIG. 1)): about 200 μg/l | optimum PRP production ([1]; garden pea peptone medium, about 200 μg/l): ≈ 480 mg/l | PRP concentration in the culture supernatant at maximum production ([1]; plant peptone medium, 100 to 200 μg/l): 0.4 g/L | production of PRP (in words) ([1]; plant peptone medium, heme source at 10 μg/l): significant production of PRP | production of PRP ([1]; plant peptone medium, heme source at 50 μg/l (FIGS. 1 and 2)): ≥ 100 µg/L | protoporphyrin IX concentration to obtain about 400 mg/l of PRP ([2]; wheat peptone and protoporphyrin IX-based medium): about 100 μg/l | times less protoporphyrin IX than hemin required for maximum PRP production ([2]; wheat peptone medium): About 15 times | heme source concentration required for optimum / equivalent PRP production ([2]; wheat peptone medium (FIG. 2)): about 100 μg/l | optimum PRP production ([2]; wheat peptone medium, about 100 μg/l): ≈ 400 mg/l

protoporphyrin IX [Porcine protoporphyrin IX]
Mean PRP [1, 3]: 15.6 mg/L | PRP in mg/l Assay 1 [1, 3]: 15.1 mg/L | PRP in mg/l Assay 2 [1, 3]: 16.1 mg/L | Mean PRP [1, 4]: 146 mg/L | PRP in mg/l Assay 1 [1, 4]: 143 mg/L | PRP in mg/l Assay 2 [1, 4]: 149 mg/L | Mean PRP [1, 5]: 349 mg/L | PRP in mg/l Assay 1 [1, 5]: 344 mg/L | PRP in mg/l Assay 2 [1, 5]: 354 mg/L | Mean PRP [1, 6]: 470 mg/L | PRP in mg/l Assay 1 [1, 6]: 450 mg/L | PRP in mg/l Assay 2 [1, 6]: 490 mg/L | Mean PRP [1, 7]: 423.5 mg/L | PRP in mg/l Assay 1 [1, 7]: 415 mg/L | PRP in mg/l Assay 2 [1, 7]: 432 mg/L | Mean PRP [1, 8]: 509 mg/L | PRP in mg/l Assay 1 [1, 8]: 495 mg/L | PRP in mg/l Assay 2 [1, 8]: 523 mg/L | Mean PRP [1, 9]: 521 mg/L | PRP in mg/l Assay 1 [1, 9]: 492 mg/L | PRP in mg/l Assay 2 [1, 9]: 550 mg/L | Mean PRP [1, 10]: 479 mg/L | PRP in mg/l Assay 1 [1, 10]: 466 mg/L | PRP in mg/l Assay 2 [1, 10]: 493 mg/L | Mean PRP [2, 3]: 26.9 mg/L | PRP in mg/l Assay 1 [2, 3]: 25.5 mg/L | PRP in mg/l Assay 2 [2, 3]: 28.3 mg/L | Mean PRP [2, 4]: 142.5 mg/L | PRP in mg/l Assay 1 [2, 4]: 136 mg/L | PRP in mg/l Assay 2 [2, 4]: 149 mg/L | Mean PRP [2, 5]: 364 mg/L | PRP in mg/l Assay 1 [2, 5]: 429 mg/L | PRP in mg/l Assay 2 [2, 5]: 299 mg/L | Mean PRP [2, 6]: 430 mg/L | PRP in mg/l Assay 1 [2, 6]: 452 mg/L | PRP in mg/l Assay 2 [2, 6]: 408 mg/L | Mean PRP [2, 7]: 385.5 mg/L | PRP in mg/l Assay 1 [2, 7]: 397 mg/L | PRP in mg/l Assay 2 [2, 7]: 374 mg/L | Mean PRP [2, 8]: 388 mg/L | PRP in mg/l Assay 1 [2, 8]: 399 mg/L | PRP in mg/l Assay 2 [2, 8]: 377 mg/L | Mean PRP [2, 9]: 387.5 mg/L | PRP in mg/l Assay 1 [2, 9]: 446 mg/L | PRP in mg/l Assay 2 [2, 9]: 329 mg/L | Mean PRP [2, 10]: 373.5 mg/L | PRP in mg/l Assay 1 [2, 10]: 464 mg/L | PRP in mg/l Assay 2 [2, 10]: 283 mg/L

protoporphyrin IX [Synthetic protoporphyrin IX]
Mean PRP [1, 11]: 11.55 mg/L | PRP in mg/l Assay 1 [1, 11]: 11.3 mg/L | PRP in mg/l Assay 2 [1, 11]: 11.8 mg/L | Mean PRP [1, 12]: 136.5 mg/L | PRP in mg/l Assay 1 [1, 12]: 139 mg/L | PRP in mg/l Assay 2 [1, 12]: 134 mg/L | Mean PRP [1, 13]: 356.5 mg/L | PRP in mg/l Assay 1 [1, 13]: 330 mg/L | PRP in mg/l Assay 2 [1, 13]: 383 mg/L | Mean PRP [1, 14]: 488 mg/L | PRP in mg/l Assay 1 [1, 14]: 474 mg/L | PRP in mg/l Assay 2 [1, 14]: 502 mg/L | Mean PRP [1, 15]: 387.5 mg/L | PRP in mg/l Assay 1 [1, 15]: 383 mg/L | PRP in mg/l Assay 2 [1, 15]: 392 mg/L | Mean PRP [1, 16]: 499 mg/L | PRP in mg/l Assay 1 [1, 16]: 524 mg/L | PRP in mg/l Assay 2 [1, 16]: 474 mg/L | Mean PRP [1, 17]: 513 mg/L | PRP in mg/l Assay 1 [1, 17]: 503 mg/L | PRP in mg/l Assay 2 [1, 17]: 523 mg/L | Mean PRP [1, 18]: 488.5 mg/L | PRP in mg/l Assay 1 [1, 18]: 480 mg/L | PRP in mg/l Assay 2 [1, 18]: 497 mg/L | Mean PRP [2, 11]: 30.7 mg/L | PRP in mg/l Assay 1 [2, 11]: 33.5 mg/L | PRP in mg/l Assay 2 [2, 11]: 27.9 mg/L | Mean PRP [2, 12]: 318 mg/L | PRP in mg/l Assay 1 [2, 12]: 317 mg/L | PRP in mg/l Assay 2 [2, 12]: 319 mg/L | Mean PRP [2, 13]: 413 mg/L | PRP in mg/l Assay 1 [2, 13]: 389 mg/L | PRP in mg/l Assay 2 [2, 13]: 437 mg/L | Mean PRP [2, 14]: 347.5 mg/L | PRP in mg/l Assay 1 [2, 14]: 345 mg/L | PRP in mg/l Assay 2 [2, 14]: 350 mg/L | Mean PRP [2, 15]: 394.5 mg/L | PRP in mg/l Assay 1 [2, 15]: 380 mg/L | PRP in mg/l Assay 2 [2, 15]: 409 mg/L | Mean PRP [2, 16]: 402.5 mg/L | PRP in mg/l Assay 1 [2, 16]: 401 mg/L | PRP in mg/l Assay 2 [2, 16]: 404 mg/L | Mean PRP [2, 17]: 354 mg/L | PRP in mg/l Assay 1 [2, 17]: 358 mg/L | PRP in mg/l Assay 2 [2, 17]: 350 mg/L | Mean PRP [2, 18]: 404 mg/L | PRP in mg/l Assay 1 [2, 18]: 378 mg/L | PRP in mg/l Assay 2 [2, 18]: 430 mg/L
